The nature of this data set: Water solubility at pH 7 (HPLC-MS). Conditions: thermodynamic from solid. It is filed as physicochemical. The method, then:
In another preferred embodiment of the invention the insecticidal active ingredient—matrix particles comprise one insecticidal active ingredient with the above indicated physicochemical properties. The melting points according to the invention are measured under standard conditions (1 atmosphere). Water solubility are indicated in percentage referring to the quotient of (g) gram insecticidal active ingredient/100 ml water. Water solubility is preferably measured with liquid chromatography e.g. with a HPLC-MS system (at 20° C., 1 atmosphere and pH 7, see also example 1 as a reference).
The reported water solubilities as shown in table 1 are determined as follows: Preparation of calibration standards: A 1000 ppm solution of the analyte in acetonitrile is prepared and from this at least three calibration points are obtained by dilution with acetonitrile going down to 0.01 mg/L, if needed. Sample Preparation: Two cavities of a deepwell are filled each with about 0.6 mg of homogenized sample and 500 μL of a pH 7 phosphate buffer is added. A glass pearl is added to each cavity, the deepwell is sealed and shaken for at least 24 h at 1600 rpm at 23° C. After the shaking procedure the solution is filtered. Aliquots of the filtrates are analysed via a HPLC-MS system with DAD and MS detection. The peak areas of all selected single DAD and ion traces are taken for the calculations. The calculation is done by external calibration against the areas of the standard samples (linear regression). The mean of all calculated values gives the water solubility of the active ingredient.

[1] abbreviates: aqueous buffer, pH 7 phosphate buffer, shaken at least 24 h at 23° C., technical grade active ingredient, read-out: water solubility at pH 7.

Read-outs that look alike come from different tables or passages of the source. Where only a bound is given, the exact number is not on record here.

Among the data in US12285011B2, “Insecticidal formulation for vector and pest control with increased contact efficacy” (DISCOVERY PURCHASER CORPORATION, priority 2018, dated 2025) are solubility values, retold here.

With `CN(C(=O)c1cc(-c2cnn(-c3c(Cl)cc(C(F)(C(F)(F)F)C(F)(F)F)cc3Cl)c2)cnc1Cl)C1CC1` [2-chloro-N-cyclopropyl-5-{1-[2,6-dichloro-4-(1,1,1,2,3,3,3-heptafluoropropan-2-yl)phenyl]-1H-pyrazol-4-yl}-N-methylnicotinamide], under setting [1], the solubility was less than 0.01 µg/mL. Molecule `CCN1OC[C@@H](NC(=O)c2ccc(C3=NO[C@@](c4cc(Cl)c(F)c(Cl)c4)(C(F)(F)F)C3)cc2C)C1=O` [4-[(5S)-5-(3,5-dichloro-4-fluorophenyl)-5-(trifluoromethyl)-4,5-dihydro-1,2-oxazol-3-yl]-N-[(4R)-2-ethyl-3-oxo-1,2-oxazolidin-4-yl]-2-methylbenzamide] had a solubility (23 °C, pH 7, aqueous buffer) of less than 0.01 µg/mL. Turning to `CN(C(=O)c1ccccc1)c1cccc(C(=O)Nc2c(Br)cc(C(F)(C(F)(F)F)C(F)(F)F)cc2C(F)(F)F)c1F` [broflanilide, 3-[benzoyl(methyl)amino]-N-[2-bromo-4-(1,1,1,2,3,3,3-heptafluoropropan-2-yl)-6-(trifluoromethyl)phenyl]-2-fluorobenzamide, reference compound], under setting [1], the solubility is less than 0.01 µg/mL.

By solubility is commonly meant the dissolved amount per volume that the medium holds.
